Data from patent EP1222921B1, “Pharmaceutical compositions of tizoxanide and/or nitazoxanide” (Romark Laboratories, L.C., priority 1997, dated 1998).
≈ marks a conversion by molar mass, not a printed value. Entries after “also recorded” stand apart in the source; their conditions may differ. Where two headings read alike, the source gives them in different places.

Columns and labels:
[1] = system: MDBKF5D2 cell monolayers; test: Toxicity testing assay (Example III), MTS/PMS; type: cell-based
Procedure: 200µl of medium containing nitazoxanide solution at the pre-mentioned concentrations and the proper controls were introduced into two wells of a 96 well plate containing confluent MDBKFD2 cell monolayers and two wells without monolayers. […] The plate was returned to the incubator in the dark to develop for 2 hours. At 2 hours, 100 µl of each supernatant was transferred to a new microtiter plate and read in the ELISA reader at 490 nm. Results were recorded and analyzed. […] (OD medium - OD drug x 100)/(OD medium) [formula] […]

[2] = system: C. parvum oocysts; test: Intact C. parvum oocyst assay (Example III), immunofluorescence; type: cell-based, Cryptosporidium parvum; conditions: for Parasite - Mean parasite count/field (12 fields analyzed) / %Inhib - Percent inhibitation of parasite infection: 48 hr.; for %Inhib - Percent inhibitation of parasite infection: listed as New NTZdes
Procedure: Each concentration of nitazoxanide and the media controls contained 0.025% DMSO as a constant. The experiment used a cell culture of MDBKF5D2 Cells grown in 7 mm chambers, and as Cryptosporidium parvum: GCH1 oocysts, 5 X 10^4 per well, and was conducted to compare paromomycin (positive control) against nitazoxanide (experimental drug). […] 5 x 104 C. parvum oocysts per well are incubated in the pre-mentioned concentrations of nitazoxanide at 37°C (8% CO2) on confluent MDBKF5D2 cell monolayers. The level of infection in each well was determined and computer analyzed by an immunofluorescence assay at 48 hours. […] (Medium control count - Drug test count)/(Medium control count)x 100 [formula] Conc. - µg/ml; Parasite - Mean parasite count/field (12 fields analyzed); %Inhib - Percent inhibitation of parasite infection; % Tox- Percent toxicity to cells by the drug.

[3] = system: M. intracellular ATCC 13950; test: MIC by standard agar dilution; type: cell-based, Mycobacterium intracellular; conditions: Mycobacterium, ATCC13950, 504 h, Middlebrook 7H11 agar, 3 weeks
[4] = system: RH strain of Toxoplasma gondii; test: Toxoplasma gondii growth in MRC5 fibroblast cultures, ELISA; type: cell-based
[5] = system: MRC5 fibroblasts; test: Toxicity on the cell monolayer in T. gondii cultures; conditions: 72 hours
[6] = system: Fasciola hepatica; test: In vitro culture of mature flukes
Procedure: The in vitro efficacy of nitazoxanide and desacetyl-nitazoxanide was tested against Fasciola hepatica. Mature F. hepatica were recovered from the bile ducts of 3 calf livers condemned due to fasciolosis at the Louisiana Veterinary Medical Diagnostic Laboratory at the Hardy's Meat […], Bunkie, LA. Flukes were washed in sterile saline for 1 hour and transferred to sterile saline or RPMI (pH 7.4) for an additional 3 hours. Flukes were then held in sterile RPMI-rabbit serum (50:50 v/v) or sterile RPMI (pH 7.4) overnight at 37°C with 5% CO2. In vitro culture (37°C, 5% CO2) was done according to a modification of the method of Ibarra and Jenkins ([…]. 70:655-661, 1984). […] Only flukes that had normal activity and morphology were used. […] Two control flukes were included in each replicate, […] and one in unmedicated culture media […]. Flukes were examined for the effects of drug treatment as evidenced by death, motility disturbances or morpholgic changes as compared to untreated control flukes, using a backlighted panel and a lighted 3X magnifying lens.

[7] = system: C. parvum oocysts; test: Intact C. parvum oocyst assay (Example II), immunofluorescence; type: cell-based, Cryptosporidium parvum; conditions: 2 mg/ml; for inhibition at 2000 µg/mL: Cryptosporidium parvum, read-out: Percent Inhibition
Procedure: Nitazoxanide was dissolved in sterile dimethylsulfoxide (DMSO) and tested against intact C. parvum oocysts infected cell monolayers at concentrations of 100 µg/ml, 10 µg/ml/l µg/ml and 0.1 µg/ml. A second trail was performed which tested nitazoxanide at the additional concentrations of 20, 2, 0.2 and 0.02 µg/ml. These concentrations were achieved by serial dilutions with complete DMEM medium to yield a final DMSO concentration of 0.5%. The medium control also contacted 0.5% DMSO.
The experiment used a cell culture of MDBKF5D2 Cells grown in 7 mm chambers, and as Cryptosporidium parvum: GCH1 oocysts, 5 X 10^4 per well, and was conducted to compare paromomycin (positive control) against nitazoxanide (experimental drug). Materials included Immune Anti-Cryptosporidium parvum Sporozoite Rabbit Serum (0.1%) and Fluorescein-Conjugated Goat Anti-Rabbit Antibody (1%).
5 x 104 C. parvum oocysts per well were incubated in nitazoxanide (100, 20, 10, 2, 1, 0.2, 0.1 and 0.02 µg/ml) at 37°C (8% CO2) on confluent MDBKF5D2 cell monolayers. The level of infection in each well was determined and analyzed by an immunofluorescence assay at 24 to 48 hours. Percent Inhibition was calculated by subtracting the mean parasite count/10 field in the drug test wells from the mean parasite count/10 fields in the medium control (no drug), dividing by the medium control count, and then multiplying by 100. (Medium control count - Drug test count)/(Medium control count)x 100 [formula]

[8] = system: MDBKF5D2 cell monolayers; type: cell-based; conditions: cattle, 2 mg/ml
Procedure: The drug was incubated on the monolayers at 37°C and 8% CO2. At 24 hours (trial 1) and 48 hours (trial 2), MTS (Owen's solution) the PMS were added to each well at concentrations of 333 µg/ml and 25 µM respectively. The plate was returned to the incubator in the dark to develop for two hours. At two hours, 100 µl of each supernatant was transferred to a new microtiter plate and read in the ELISA reader at 490nm. Results were recorded and analyzed. Percent toxicity was calculated by subtracting the mean optical density (OD) of the drug supernatants from the mean optical density (OD) of the medium control supernatants (no drug), dividing by the OD of the medium control and multiplying by 100. (OD medium - OD drug)/(OD medium)x 100 [formula]

[9] = 48 hr., Conc 0.01 µg/ml, 0.025% DMSO
[10] = 48 hr., Conc 0.1 µg/ml, 0.025% DMSO
[11] = 48 hr., Conc 1 µg/ml, 0.025% DMSO
[12] = 48 hr., Conc 10 µg/ml, 0.025% DMSO

O=C(Nc1ncc([N+](=O)[O-])s1)c1ccccc1O [Tizoxanide, desacetyl-nitazoxanide]
%Tox - Percent toxicity to cells by the drug [1, 9]: 4.36% | Score (cytotoxicity score) [1, 9]: 0 (0.5% toxicity = 0) | Tox/OD ([1]; 48 hr., Conc 0.01 µg/ml, 0.025% DMSO, OD at 490 nm): 1.721 | %Tox - Percent toxicity to cells by the drug [1, 10]: 16.29% | Score (cytotoxicity score) [1, 10]: 1 (6-25% toxicity = 1) | Tox/OD ([1]; 48 hr., Conc 0.1 µg/ml, 0.025% DMSO, OD at 490 nm): 1.506 | %Tox - Percent toxicity to cells by the drug [1, 11]: 4.97% | Score (cytotoxicity score) [1, 11]: 0 (0.5% toxicity = 0) | Tox/OD ([1]; 48 hr., Conc 1 µg/ml, 0.025% DMSO, OD at 490 nm): 1.710 | %Tox - Percent toxicity to cells by the drug [1, 12]: 81.27% | Score (cytotoxicity score) [1, 12]: 4 (76-100% toxicity =- 4) | Tox/OD ([1]; 48 hr., Conc 10 µg/ml, 0.025% DMSO, OD at 490 nm): .337 | Parasite - Mean parasite count/field (12 fields analyzed) ([2]; Conc 0.01 µg/ml, 0.025% DMSO): 749.33 | Parasite - Mean parasite count/field (12 fields analyzed) ([2]; Conc 0.1 µg/ml, 0.025% DMSO): 649.86 | Parasite - Mean parasite count/field (12 fields analyzed) ([2]; Conc 1 µg/ml, 0.025% DMSO): 39.92 | %Inhib - Percent inhibitation of parasite infection ([2]; Conc 1 µg/ml, 0.025% DMSO): 93.65% | Parasite - Mean parasite count/field (12 fields analyzed) ([2]; Conc 10 µg/ml, 0.025% DMSO): 13.75 | %Inhib - Percent inhibitation of parasite infection ([2]; Conc 10 µg/ml, 0.025% DMSO): 97.81% | inhibition at 0.01 µg/mL ([2]; Cryptosporidium parvum, 48 h, Conc 0.01 µg/ml, 0.025% DMSO, read-out: %Inhib - Percent inhibitation of parasite infection): ≤ 0% | inhibition at 0.1 µg/mL ([2]; Cryptosporidium parvum, 48 h, Conc 0.1 µg/ml, 0.025% DMSO, read-out: %Inhib - Percent inhibitation of parasite infection): ≤ 0% | inhibition at 1 µg/mL ([2]; Cryptosporidium parvum, 48 h, Conc 1 µg/ml, 0.025% DMSO, read-out: %Inhib - Percent inhibitation of parasite infection): 94% | inhibition at 10 µg/mL ([2]; Cryptosporidium parvum, 48 h, Conc 10 µg/ml, 0.025% DMSO, read-out: %Inhib - Percent inhibitation of parasite infection): 98% | MIC [3]: 4 µg/mL (≈ 15.1 µM) | concentration with significant effect (inhibition) ([4]; 72 hours): ≥ 0.6 mg/L | IC50 ([4]; Toxoplasma gondii, MRC5, 72 hours, estimated from regression analysis, read-out: 50% inhibitory concentration): 1.2 µg/mL (≈ 4.52 µM) | concentrations at which a marked inhibition of Toxoplasma growth could be observed ([4]; alteration of the parasitophorous vacuole, no marked alteration of the parasite itself): approximately 1.2 mg/L | concentrations with marked toxicity on the cell monolayer [5]: ≥ 2500 ng/mL | effects on flukes (death, motility disturbances) ([6]; 1 µg treatment, listed as D-NTZ): Some slowing of activity was noted in the 1 µg group at 42-74 hours; also recorded: only 3 active and one moribund fluke remained alive at 91 hours; also recorded: at 115 hours only one sluggish fluke remained | effects on flukes (death, motility disturbances) ([6]; 3 µg treatment, listed as D-NTZ): Reduced activity in some individuals was seen by 24 hours in the 5 µg and 3 µg groups with a somewhat slower onset at 3 µg; also recorded: all were dead in the 3 and 5 µg treatment wells by 50 hours except one sluggish fluke in each group | effects on flukes (death, motility disturbances) ([6]; 5 µg treatment, listed as D-NTZ): Reduced activity in some individuals was seen by 24 hours; also recorded: all were dead in the 3 and 5 µg treatment wells by 50 hours except one sluggish fluke in each group | effects on flukes (death, motility disturbances) ([6]; 10 µg treatment, listed as D-NTZ): reduced activity was noted at 1, 3 and 4 hours; also recorded: all were moribund or dead by 7 hours | effects on flukes (death, motility disturbances) ([6]; 25 µg treatment, listed as D-NTZ): Four of 7 flukes in the 25 µg treatment were moribund, two were active, and one was sluggish within the first hour; also recorded: all were dead except two sluggish flukes by three hours; also recorded: only one sluggish fluke remained alive after four hours | effects on flukes (death, motility disturbances) ([6]; 50 µg treatment): moribund or dead within one hour | effects on flukes (death, motility disturbances) ([6]; 100 µg treatment): moribund or dead within one hour | time to rapid fluke death ([6]; in vitro medication rate 10µg): 6 to 7 h | time to rapid fluke death ([6]; in vitro medication rate 25 µg): ≤ 4 h | time to rapid fluke death ([6]; in vitro medication rates of >50 µg): ≤ 1 h

NC[C@@H]1O[C@H](O[C@H]2[C@@H](O)[C@H](O[C@@H]3[C@@H](O)[C@H](N)C[C@H](N)[C@H]3O[C@H]3O[C@H](CO)[C@@H](O)[C@H](O)[C@H]3N)O[C@@H]2CO)[C@H](N)[C@@H](O)[C@@H]1O [Paromomycin, reference compound]
%Tox - Percent toxicity to cells by the drug ([1]; cattle, 48 h, 2000 µg/ml): 39.79% | Tox/OD ([1]; cattle, 48 h, 2000 µg/ml): 1.219 | Parasite - Mean parasite count/field (12 fields analyzed) ([2]; Conc 2000 µg/ml, aqueous media): 115.75 | inhibition at 2000 µg/mL ([2]; Cryptosporidium parvum, 48 h, Conc 2000 µg/ml, aqueous media, read-out: %Inhib - Percent inhibitation of parasite infection): 83% | inhibition at 2000 µg/mL ([2]; Cryptosporidium parvum, concentration of 2,000 µg/ml, positive control, Examples II and III, read-out: inhibition (range over the experiments)): 51 to 83% | times less effective (than nitazoxanide) ([2]; same experimental condition, positive control): 2,000 times | inhibition at 2000 µg/mL ([7]; Trial 1: 24 hrs): 51% | inhibition at 2000 µg/mL ([7]; Trial 2: 48 hrs): 74% | Mean (+ SD) Parasite Count/10 Fields ([7]; Trial 1: 24 hrs): 482(±47.1) | Mean (+ SD) Parasite Count/10 Fields ([7]; Trial 2: 48 hrs): 580(+33.42) | Percent Toxicity ([8]; 24 h): 23.8% | Percent Toxicity ([8]; 48 h): 40.8%
